This passage reports IC50 results from patent publication US10000535B2, “Template-fixed peptidomimetics” (POLYPHOR LTD., priority 2007, dated 2018).

The assay has as its target T1, human CXCR3 (Homo sapiens, UniProt P49682).
T1 construct: expressed in transfected cells; host or cells: mouse pre-B cell line 300-19
T1 sequence (P49682 1-368): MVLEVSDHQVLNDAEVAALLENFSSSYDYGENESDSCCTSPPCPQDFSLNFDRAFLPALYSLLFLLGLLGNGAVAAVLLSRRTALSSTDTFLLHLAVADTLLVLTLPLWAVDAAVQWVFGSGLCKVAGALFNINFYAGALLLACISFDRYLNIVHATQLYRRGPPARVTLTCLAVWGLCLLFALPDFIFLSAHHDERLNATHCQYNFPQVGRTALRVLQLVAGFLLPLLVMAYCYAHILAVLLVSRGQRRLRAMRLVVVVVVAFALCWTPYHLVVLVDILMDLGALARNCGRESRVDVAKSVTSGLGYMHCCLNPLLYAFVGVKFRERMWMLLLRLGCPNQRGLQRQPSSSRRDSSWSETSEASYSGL
The experiment in a line: Calcium flux antagonism assay with human CXCL10. It counts as cell-based. The settings on record: 300-19 cells with human CXCR3, read-out: IC50% (μM) ± SD, CXCR3 receptor. Here is the method:
The mouse pre-B cell line 300-19 was stably transfected with the cDNA encoding the human UTR2 receptor (GenBank Acc#NM_018949), and expression was confirmed with a positive calcium signal in response to human urotensin (Sigma Aldrich). Increases in intracellular calcium were monitored using a Flexstation 384 (Molecular Devices, Sunnyvale, Calif.). The cells were batch loaded with the Calcium 3 Assay kit (Molecular Devices) in assay buffer (Hanks Balanced salt solution, HBSS, 20 mM HEPES, pH 7.4, 0.1% BSA) for 1 h at room temperature and labeled cells were dispensed into either black 96 well or 384 well assay plates (Greiner). Calcium mobilization induced by urotensin or compounds was measured in the Flexstation 384 (excitation, […]) for 70 seconds. Agonist activity was determined by direct addition of ligand or peptides, while antagonists were identified by pre-incubation of compounds with cells prior to urotensin addition. A dose response curve (compound concentration versus % maximum response for urotensin) was determined for each active agonist and antagonist and was fitted to a four parameter logistic equation using SoftmaxPro 4.6 (Molecular Devices), from which EC50% and IC50% values were calculated. […]
For orientation: Calcium flux is commonly read through the fluorescence of an indicator in the cells.

Non-standard residues stand in square brackets, D forms with d. Residues, ends and D or L forms follow the SMILES beside them. Aze = O=C(O)[C@@H]1CCN1

Turning to `N=C(N)NCCC[C@@H]1NC(=O)[C@H](Cc2c[nH]c3ccccc23)NC(=O)[C@H](Cc2ccc(O)cc2)NC(=O)[C@@H]2CCN2C(=O)[C@H]2CCCN2C(=O)CNC1=O` [Example 15] (cyclo(YWRG[dP][Aze])), the 50% inhibitory concentration (IC50) (usually the concentration needed to halve the response being measured) came out at 8.6 µM.
As for `C[C@@H]1NC(=O)[C@H](CCCNC(=N)N)NC(=O)[C@H](Cc2c[nH]c3ccccc23)NC(=O)[C@H](Cc2ccc(O)cc2)NC(=O)[C@@H]2CCN2C(=O)[C@H]2CCCN2C1=O` [Example 16] (cyclo(YWRA[dP][Aze])), the IC50 came out at 8.1 µM.
